From PubChem BioAssay AID192 (DTP/NCI, 2004)
Where “and” joins values, the source holds several entries; their conditions need not be identical. Identical values can stand only once. Toxic doses and inconclusive results are not listed. How the source made its calls: active means survival T/C of 150% or more; inactive means T/C below 125% in these data.

System: BDF1 mice, B16 melanoma ip, median survival T/C
Assay: NCI In Vivo Anticancer Drug Screen. Data for tumor model B16 Melanoma (intraperitoneal) in B6D2F1 (BDF1) mice
Conditions: endpoint: median survival time, higher = longer survival
Procedure, shortened: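 In this screen, activity was judged from survival or tumor size in treated versus vehicle-treated tumor-bearing mice, reported as T/C.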

[1] = dose: 100.0 mg/kg/injection, schedule: Q01DX009 (ip), vehicle: saline with Tween-80
[2] = dose: 1.56 mg/kg/injection, schedule: Q04DX003 (ip), vehicle: saline
[3] = dose: 6.25 mg/kg/injection, schedule: Q01DX009 (ip), vehicle: saline
[4] = dose: 6.25 mg/kg/injection, schedule: Q04DX003 (ip), vehicle: saline
[5] = dose: 25.0 mg/kg/injection, schedule: Q01DX009 (ip), vehicle: saline
[6] = dose: 25.0 mg/kg/injection, schedule: Q01DX009 (ip), vehicle: saline with Tween-80
[7] = dose: 50.0 mg/kg/injection, schedule: Q01DX009 (ip), vehicle: saline with Tween-80
[8] = dose: 3.13 mg/kg/injection, schedule: Q01DX009 (ip), vehicle: saline with Tween-80
[9] = dose: 6.25 mg/kg/injection, schedule: Q01DX009 (ip), vehicle: saline with Tween-80
[10] = dose: 12.5 mg/kg/injection, schedule: Q01DX009 (ip), vehicle: saline with Tween-80
[11] = dose: 50.0 mg/kg/injection, schedule: Q01DX009 (ip), vehicle: Klucel (hydroxypropylcellulose) (HPC)
[12] = dose: 100.0 mg/kg/injection, schedule: Q01DX009 (ip), vehicle: Klucel (hydroxypropylcellulose) (HPC)
[13] = dose: 200.0 mg/kg/injection, schedule: Q01DX009 (ip), vehicle: Klucel (hydroxypropylcellulose) (HPC)
[14] = dose: 400.0 mg/kg/injection, schedule: Q01DX009 (ip), vehicle: Klucel (hydroxypropylcellulose) (HPC)
[15] = dose: 100.0 mg/kg/injection, schedule: Q01DX009 (ip), vehicle: carboxymethylcellulose (CMC)
[16] = dose: 200.0 mg/kg/injection, schedule: Q01DX009 (ip), vehicle: carboxymethylcellulose (CMC)
[17] = dose: 25.0 mg/kg/injection, schedule: Q01DX009 (ip), vehicle: Klucel (hydroxypropylcellulose) (HPC)

Measured: T/C

CCCCCC(=O)c1ccc(OCCCN2CCN(C(=O)OCC)CC2)cc1
inactive: [1] 98 % of control | dose: 200.0 mg/kg/injection, schedule: Q01DX009 (ip), vehicle: saline with Tween-80 87 % of control

C1CCc2nnnn2CC1
inactive: [2] 111 % of control | dose: 3.12 mg/kg/injection, schedule: Q01DX009 (ip), vehicle: saline 113 % of control | dose: 3.12 mg/kg/injection, schedule: Q04DX003 (ip), vehicle: saline 110 % of control | [3] 102 % of control | [4] 106 % of control | dose: 12.5 mg/kg/injection, schedule: Q01DX009 (ip), vehicle: saline 102 % of control | dose: 12.5 mg/kg/injection, schedule: Q04DX003 (ip), vehicle: saline 103 % of control | [5] 88 % of control | dose: 25.0 mg/kg/injection, schedule: Q04DX003 (ip), vehicle: saline 103 % of control and 111 % of control | dose: 50.0 mg/kg/injection, schedule: Q04DX003 (ip), vehicle: saline 105 % of control

CCCCCc1ccc(C(=O)O)cc1
inactive: [6] 105 % of control | [7] 102 % of control | [1] 111 % of control

Nc1ccc(S(=O)(=O)N/N=C/c2ccccc2[N+](=O)[O-])cc1
inactive: [8] 115 % of control | [9] 96 % of control and 123 % of control | [10] 99 % of control and 122 % of control | [6] 105 % of control | [7] 118 % of control

CCc1nc(N)nc(N)c1-c1ccc(Cl)c(Cl)c1.[Cl][Pd][Cl]
inactive: [3] 97 % of control

O=C(O)C(Cc1cc(I)c(O)c(I)c1)c1ccccc1 (centres undefined)
inactive: [11] 100 % of control | [12] 109 % of control | [13] 100 % of control

C1CC[N-]CC1.CC(=N\O)/C(C)=N/O.CC(=N\O)/C(C)=N/O.[Co+2].[c-]1ccccc1
inactive: [12] 90 % of control | [13] 93 % of control | [14] 90 % of control

CC[CH2][Pb]([CH2]CC)([CH2]CC)[N]1C(=O)c2ccccc2C1=O
inactive: dose: 3.12 mg/kg/injection, schedule: Q01DX009 (ip), vehicle: Klucel (hydroxypropylcellulose) (HPC) 109 % of control | dose: 6.25 mg/kg/injection, schedule: Q01DX009 (ip), vehicle: Klucel (hydroxypropylcellulose) (HPC) 101 % of control

c1ccc(C2CCCCCC2)cc1
inactive: dose: 6.25 mg/kg/injection, schedule: Q01DX009 (ip), vehicle: other 108 % of control | dose: 12.5 mg/kg/injection, schedule: Q01DX009 (ip), vehicle: other 98 % of control | dose: 25.0 mg/kg/injection, schedule: Q01DX009 (ip), vehicle: other 111 % of control | dose: 50.0 mg/kg/injection, schedule: Q01DX009 (ip), vehicle: other 109 % of control | dose: 100.0 mg/kg/injection, schedule: Q01DX009 (ip), vehicle: other 89 % of control

NC(Cc1cc(I)c(O)c(I)c1)C(=O)O (centres undefined)
inactive: [5] 106 % of control | dose: 50.0 mg/kg/injection, schedule: Q01DX009 (ip), vehicle: saline 112 % of control | [15] 108 % of control | dose: 100.0 mg/kg/injection, schedule: Q01DX009 (ip), vehicle: saline 116 % of control | [16] 115 % of control | dose: 200.0 mg/kg/injection, schedule: Q01DX009 (ip), vehicle: saline 110 % of control | dose: 400.0 mg/kg/injection, schedule: Q01DX009 (ip), vehicle: saline 100 % of control

COCCNCCN1CCN(CCCN2c3ccccc3Sc3ccc(C(F)(F)F)cc32)CC1
inactive: dose: 3.75 mg/kg/injection, schedule: Q01DX009 (ip), vehicle: saline 109 % of control | dose: 7.5 mg/kg/injection, schedule: Q01DX009 (ip), vehicle: saline 107 % of control | dose: 15.0 mg/kg/injection, schedule: Q01DX009 (ip), vehicle: saline 111 % of control | dose: 30.0 mg/kg/injection, schedule: Q01DX009 (ip), vehicle: saline 88 % of control

C=C1C(=O)O[C@@H]2/C=C(\C)CC/C=C(/COC(C)=O)C[C@@H](OC(C)=O)[C@@H]12
inactive: dose: 5.0 mg/kg/injection, schedule: Q01DX009 (ip), vehicle: saline with Tween-80 107 % of control | dose: 10.0 mg/kg/injection, schedule: Q01DX009 (ip), vehicle: saline with Tween-80 99 % of control | dose: 18.0 mg/kg/injection, schedule: Q01DX009 (ip), vehicle: acetone 95 % of control | dose: 20.0 mg/kg/injection, schedule: Q01DX009 (ip), vehicle: saline with Tween-80 104 % of control

CCOC(=O)C1=NN(c2ccccc2)C(=O)C1
inactive: [12] 97 % of control | [13] 97 % of control | [14] 97 % of control

CCN(C)N=Nc1ccc(C(N)=O)cc1
inactive: [17] 104 % of control | [11] 112 % of control

O=CC1CO1 (centres undefined)
inactive: dose: 12.5 mg/kg/injection, schedule: Q01DX009 (ip), vehicle: saline sonified 90 % of control | dose: 25.0 mg/kg/injection, schedule: Q01DX009 (ip), vehicle: saline sonified 90 % of control | dose: 50.0 mg/kg/injection, schedule: Q01DX009 (ip), vehicle: saline sonified 97 % of control

CC(C)(C)OC(=O)C(CSSCC(NC(=O)OCc1ccccc1)C(=O)OC(C)(C)C)NC(=O)OCc1ccccc1 (centres undefined)
inactive: dose: 75.0 mg/kg/injection, schedule: Q01DX009 (ip), vehicle: Klucel (hydroxypropylcellulose) (HPC) 94 % of control | dose: 150.0 mg/kg/injection, schedule: Q01DX009 (ip), vehicle: Klucel (hydroxypropylcellulose) (HPC) 100 % of control | dose: 300.0 mg/kg/injection, schedule: Q01DX009 (ip), vehicle: Klucel (hydroxypropylcellulose) (HPC) 88 % of control

c1cc2cc3c(cc2cc1CC1=NCCc2cc4c(cc21)OCO4)OCO3
inactive: dose: 150.0 mg/kg/injection, schedule: Q01DX009 (ip), vehicle: other 102 % of control

CCCC1CC[N-]CC1.CCCC1CC[N-]CC1.[Br][Pt+2]([Br])([Br])[Br]
inactive: dose: 3.13 mg/kg/injection, schedule: Q01DX009 (ip), vehicle: water 98 % of control | dose: 6.25 mg/kg/injection, schedule: Q01DX009 (ip), vehicle: water 102 % of control | dose: 12.5 mg/kg/injection, schedule: Q01DX009 (ip), vehicle: water 97 % of control

CCS(=O)(=O)OCCCl
inactive: [6] 104 % of control | [7] 100 % of control | [1] 103 % of control

CS(=O)(=O)c1nnc(-c2ccccc2)s1
inactive: [15] 111 % of control | [16] 102 % of control

N#CSCc1ccccc1Cl
inactive: [2] 89 % of control | [8] 105 % of control | dose: 3.13 mg/kg/injection, schedule: Q04DX003 (ip), vehicle: saline 89 % of control | [9] 105 % of control | dose: 6.25 mg/kg/injection, schedule: Q04DX003 (ip), vehicle: saline with Tween-80 88 % of control | [4] 86 % of control | [10] 114 % of control

CCCCCCCCCCCCCCCC(=O)N(CCC#N)C(C)(C)CCC(C)(C)N(CCC#N)C(=O)CCCCCCCCCCCCCCC
inactive: [17] 90 % of control | [11] 98 % of control | [12] 91 % of control
